Patent publication US9181172B2, “Rhein conjugates, preparation method thereof and their uses in producing medicines for treating diabetic nephrosis, intestinal adhesion and osteoarthritis” (priority 2005, dated 2015)
Structures can show the parent of a compound that is named as a salt.

Legend:
Assay type in all cases: in vivo
mice [1] = assay: Xylene-induced swelling of auricle in mice; details: ig 40 mg/kg, 3 days
Procedure: Fifty male Kunming mice were selected, weighing 18-22 g each, and randomly divided into five groups, namely, model control group, aspirin group, rhein sodium group, rhein glucosamine large dose group and low dose groups. Each group had 10 mice respectively. The mice were administered with medicines by intragastric administration every day, for 0.2 ml/10 g body weight. The mice of the model control group were administered with equal volume of physiological saline, once every day, continuously administration for 3 days. After 60 minutes of the final administration, carried on test according to the method in the literature [Xu Shuyun, Methodology in Pharmacological Experiment (the 3rd version): 911]. The sweeling degree of auricle was calculated and statistical analysis was conducted.

mice [2] = assay: Capillary permeability of mice; details: dosage 12 mg/kg
Procedure: Each group has 12 mice, administration: 0.20 ml/10 g. Mice in the model control group were administrated with isovolumic physiologic saline.

mice [3] = assay: Acetic acid-induced writhing response in mice; details: ig 40 mg/kg, 12 days
Procedure: Fifty Kunming mice, half male and half female, weighing 18-22 g each, were selected and randomly divided into five groups, namely, model control group, aspirin group, rhein sodium group, rhein glucosamine large dose group and small dose group, 10 mice for each group. The mice were administered with medicine by intragastric administration every day, 0.2 ml/10 g body weight, once every day, and administered for 12 days in succession. After the final administration of medicines, 30 minutes later, test was carried on according to the methods in the literature [Xu Shuyun, Methodology in Pharmacological Experiment (the 1st version): 882]. The inhibiting rate for writhing response was calculated.

mice [4] = assay: Immune function in mice (clearance index, phagocytic index); details: ig 40 mg/kg, 3 days
Procedure: Fifty Kunming mice, half male and half female, weighing 18-22 g each were selected and randomly divided into five groups, namely, model control group, cyclophosphamide group, rhein sodium group, rhein glucosamine large dose group and small dose group, 10 mice for each group. The mice were administered with medicines by intragastric administration, 0.2 ml/10 g body weight, once every day and administered for 3 days in succession. After the mice were administered with medicines, 30 minutes later, test was carried on according to the method in the literature [Xu Shuyun, Methodology in Pharmacological Experiment (the 3rd version): 934]. The […] and corrected phagocytic index α were calculated, and t-test was conducted for statistical analysis.

mice [5] = assay: Intestinal propulsion in mice; details: dosage 12 mg/kg, intravenous injection
Procedure: Fifty mice, male, weighting from 18 to 22 g, were randomly divided into five groups, namely, model control group, domperidone group, rhein sodium group, rhein glucosamine large dose group and low dose group.
Each group has 10 mice respectively. The mice were fasted, but water was not prohibited, and then administered with medicines by intravenous injection. After that, tests were carried on immediately according to the methods in the literature[Xu Shuyun, Methodology in Pharmacological Experiment (the 3rd version): 1313]. The intestinal propulsive rates were calculated, and t test was used for the intergroup comparison.

rats = assay: Formation of granuloma in rats (arthritis example, test 4); details: 20 mg/kg intragastric, two weeks
Procedure: Rats were randomly divided into five groups (model control group, indomethacin group, rhein glucosamine large dose group and small dose group and rhein sodium group). Each group has 10 […]. According to the method in the literature [Xu Shuyun, Methodology in Pharmacological Experiment (the 3rd version): 918], the models were built, and the rats were administered with medicines since the day when starting operations. […] Two weeks later, the rats were killed and test was carried on according to the method in the literature. The net weight of granulation was calculated, and t test was used for the intergroup comparison.

obese hyperglycemia mice = assay: Body weight and blood glucose of obese hyperglycemia mice
Procedure: 9-week-old obese mice of hyperglycemia were randomly divided into: rhein sodium group, non-treatment group, rosiglitazone group, rhein lysine high-dose group and low-dose group, each group has 6 mice. Kunming mice of the same age were used as the control group, which were fed by conventional feedstuff with free food and water feeding. Rhein lysine conjugates [the dose is 180 mg/kg (0.418 mmol/kg) and 90 mg/kg (0.209 mmol/kg) for intragastric infusion, prepared with distilled water], dose of the rhein sodium group is 130 mg/kg (0.424 mmol/kg), the mixture was dissolved with distilled water, intragastric administration; rosiglitazone group (the dose is 4 mg/kg), the mixture was dissolved with distilled water, intragastric administration, and the rats of the other two groups were administered with the same volume of distilled water, once a day, 12 weeks of administration in succession. The animals' body weight and blood sugar were measured regularly, and statistical analysis was conducted.

diabetic rats = assay: Diabetic nephrosis of obese diabetic rats (high-fat high-sugar diet plus STZ); details: six months, ig 65 mg/kg
Procedure: Animal model of diabetic rats: after one month of high-fat high-sugar diet, the rats (about 180 g) were injected by sub-pathogenic dose (25 mg/kg) of streptozotocin (STZ) to induce the occurrence of diabetes. The model has the characteristics of moderate hyperglycemia, hyperlipidemia and insulin resistance as well as pathological changes of typical diabetic nephrosis.
• 1. Conventional feedstuff control group: distilled water. • 2. Diabetes model group: distilled water. • 3. Rhein lysine diabetes treatment group: a month after STZ injection, rhein lysine complex [prepared with distilled water, intragastric infusion for rats according to 90 mg/kg (0.209 mmol/kg) dose] was administered referred to treatment group 1. • 4. Rhein sodium diabetes treatment group: a month after STZ injection, rhein sodium [prepared with distilled water, intragastric infusion for rats, according to 65 mg/kg (0.212 mmol/kg) dose] was administered, referred to treatment group 2. • 5. Rhein lysine diabetes prevention group: one week after STZ injection, rhein lysine conjugates were administered [prepared with distilled water and intragastric infusion for rats, according to 90 mg/kg (0.209 mmol/kg) dose], referred to prevention group 1. • 6. Rhein sodium diabetes prevention group: one week after STZ injection, rhein sodium were administered [prepared with distilled water and intragastric infusion for rats, according to 65 mg/kg (0.212 mmol/kg ) dose], referred to prevention group 2.

[6] = baseline of group given ig 130 mg/kg once a day

O=C(O)c1cc(O)c2c(c1)C(=O)c1cccc(O)c1C2=O [Rhein sodium salt, rhein sodium salt]
inhibition rate (mice [1]): 29.8%
swelling degree of auricle (mice [1]): 12.5 ± 2.2 mg
absorbance value (mice [2]): 0.494 ± 0.134
Inhibiting rate (mice [3]): 37.7%
Times of writhing (mice [3]): 20.1 ± 8.9 per/20 min
Clearance index (k) (mice [4]): 0.0272 ± 0.0124
Phagocytic index (α) (mice [4]): 4.9134 ± 0.7498
Propulsive rate (mice [5]): 51.69 ± 7.1 %
Net weight of granulation (rats): 15.23 ± 2.99Δ Δ mg
Blood glucose prior to administration (obese hyperglycemia mice; [6]): 28.9 ± 4.8 mmol/L
Body weight prior to administration (obese hyperglycemia mice; [6]): 28.9 ± 1.8 g
Blood glucose 6 w after administration (obese hyperglycemia mice; ig 130 mg/kg once a day): 31.2 ± 5.5 mmol/L
Blood glucose 9 w after administration (obese hyperglycemia mice; ig 130 mg/kg once a day): 33.5 ± 5.4 mmol/L
Blood glucose 12 w after administration (obese hyperglycemia mice; ig 130 mg/kg once a day): 30.1 ± 4.5 mmol/L
Body weight 6 w after administration (obese hyperglycemia mice; ig 130 mg/kg once a day): 35.8 ± 1.5 g
Body weight 9 w after administration (obese hyperglycemia mice; ig 130 mg/kg once a day): 39.5 ± 1.4 g
Body weight 12 w after administration (obese hyperglycemia mice; ig 130 mg/kg once a day): 41.1 ± 1.5 g
Urine protein (diabetic rats; preventive administration from one week after STZ): 11.54 ± 2.98 mg/24 h
Kidney weight index (double kidney weight/body weight × 10^4) (diabetic rats; preventive administration): 5.21 ± 0.68
Serum total cholesterol (diabetic rats; preventive administration): 2.89 ± 0.31 mM
Serum triacylglycerol (diabetic rats; preventive administration): 1.68 ± 0.45
Steady blood sugar level (diabetic rats; preventive administration): 6.7 ± 0.8 mmol/L
Steady insulin level (diabetic rats; preventive administration): 72.6 ± 3.6 uU/ml
Weight (diabetic rats; preventive administration): 243 ± 12 g
blood sugar (diabetic rats; preventive administration): 15.08 ± 5.7 mmol/L
Urine protein (diabetic rats; treatment from a month after STZ): 16.15 ± 7.71 mg/24 h
Kidney weight index (double kidney weight/body weight × 10^4) (diabetic rats; treatment): 6.9 ± 0.83
Serum total cholesterol (diabetic rats; treatment): 3.71 ± 0.63 mM
Serum triacylglycerol (diabetic rats; treatment): 1.66 ± 0.47
Steady blood sugar level (diabetic rats; treatment): 5.9 ± 0.8 mmol/L
Steady insulin level (diabetic rats; treatment): 81 ± 4.5 uU/ml
Weight (diabetic rats; treatment): 229 ± 16 g
blood sugar (diabetic rats; treatment): 17.3 ± 3.3 mmol/L
